“Also recorded” adds a separate entry of the source.
Biological target: T1, pCdk2(ES)/cyclin A holoenzyme (Homo sapiens, UniProt P24941, C177A/F80C)
T1 construct: GST (N, cleaved yes); made in house; host or cells: E. coli Tuner(DE3); Cdk2 phosphorylated in vitro with GST-CAK1 (S. cerevisiae)
Assay: spectrophotometric coupled (LDH/PK) kinase assay after labelling and dialysis
Format: biochemical
Settings: treatment with 0.5 mM acrylamide, then dialysis to remove ligand
Description: Next we undertook biochemical validation of the electrophile sensitive approach using a spectrophotometric kinase assay. In this experiment the activity of Cdk2 is activated both by phosphorylation and interaction with cyclin A. The catalytic turnover of ATP is coupled to the oxidation of NADH by lactate dehydrogenase (LDH) and pyruvate kinase (PK), which is monitored by absorbance at 340 nm.
H. Intact-protein mass spectrometry
Protein-mass data were obtained on a Waters micromass LC-TOF mass spectrometer in positive ion mode using electrospray ionization. Samples were chromatographed using an Acquity UPLC protein BEH C4 column (2.1 mm × 50 mm, 2.7 µm) with a flow rate of 30 µL/min. The injection volume was 5 µL of protein solution (5 µM) in 30 mM ammonium bicarbonate buffer con-taining 0.5% formic acid and 20% MeOH. The gradient used was 100% mobile phase A (0.1% formic acid in water/MeOH (19:1)) ramping linearly to 90% mobile phase B (0.1% formic acid in MeOH) over 5 minutes. […]
4EK3) and the model was iteratively refined using Phenix.Refine[13] with manual modelling and adjustments carried out in COOT[14]. […] Electron density maps were calculated using FFT[17] and figures were prepared using PyMol (Schrö dinger). […]

C=CC(=O)Nc1ccc(-c2ncccn2)cc1 [S1]
inhibition of kinase activity: complete irreversible inhbition

C=CC(=O)N1CCCc2cc(C(=O)OC)ccc21 [compound 1]
inhibition of kinase activity: complete irreversible inhbition; also recorded: complete inhibition
